Experimental data from patent publication US4499019A, “N-(1-allyl-2-pyrrolidylmethyl)-2,3-dimethoxy-5-sulfamoylbenzamide and derivatives thereof and method for treating hot flushes associated with natural or surgical menopause” (Societe D'Etudes Scientifiques et Industrielles de l'Ile de …, priority 1976, dated 1985).
Like-named read-outs stand apart in the source and are kept apart here.

Legend:
[1] = Acute toxicity in the Swiss mouse (parenteral and oral administration); details: in vivo
Excerpt: (§1) The acute toxicity of the compound was studied in the Swiss mouse with both parenteral and oral administration and in the Wistar rat with oral administration.

Wistar rat = experiment: Acute toxicity in the Wistar rat (oral administration); format: in vivo
Excerpt: as §1
However, the LD0 is approximately 1.5 g/kg.

[2] = Semichronic toxicity in the Wistar rat, oral, four weeks; details: in vivo, doses 0.5, 1 and 2 g/kg per 24 hours, read-out: relatively or completely non-toxic up to (dose)
Description: In the rat the compound was administered in doses of 0.5, 1 and 2 g/kg per 24 hours.

female rat = experiment: Effects on ovary, vaginal cytology and mammary glands in the female rat; format: in vivo
Excerpt: (§2) Experiments have been carried out on both the female rat and the female hamster. The changes produced by the compound at the level of the ovary and of vaginal cytology make it possible to predict a point of impact located at the level of the hypothalamo hypophyso-ovarian axis.

female hamster = experiment: Effects on ovary and mammary glands in the female hamster; format: in vivo
Excerpt: as §2

[3] = system: psycho neuro-vegetative symptoms of the menopause; experiment: Double-blind study against placebo on the psycho neuro-vegetative symptoms of the menopause; format: in vivo, human; details: forty observations, double blinding against placebo
Excerpt: The action of the compound on the psycho neuro-vegetative symptoms of the menopause has been studied with double blinding against placebo.

[4] = system: psycho neuro-vegetative syndrome of the natural or surgical menopause; experiment: Clinical results in patients with psycho neuro-vegetative syndrome of the menopause (243 patients); format: in vivo, human
male rats = details: rat, in vivo, sc
Description: The compound was administered subcutaneously to male rats. The criterion for the cataleptic state was the immobility of the animal for 30 seconds with its front limbs apart and arranged carefully on cubes of wood 4 centimeters high, thus placing the animal in an unaccustomed and uncomfortable position.

patients = details: human, in vivo
[5] = system: psycho neuro-vegetative syndrome of the natural or surgical menopause
Description: A patient, suffering considerable neuro-vegetative symptoms in the natural menopause mainly with attacks of sweating and hot flushes (30-40 a day), was treated orally with N-(1'-allyl-2'-pyrrolidylmethyl)-2,3-dimethoxy-5-sulfamoylbenzamide at a dosage of 100 mg per day. […] The following is a comparison of the patient's neuro-vegetative symptoms before treatment with treatment after eight days:
The patient was treated orally with N-(1'-allyl-2'-pyrrolidylmethyl)-2,3-dimethoxy-5-sulfamoylbenzamide at a dosage rate of 100 mg per day.
A patient had considerable neuro-vegetative symptoms in the natural menopause with mainly hot flushes and headaches.
The patient was treated orally with N-(1'-allyl-2'-pyrrolidylmethyl)-2,3-dimethoxy-5-sulfamoylbenzamide at a dosage rate of 100 mg per day for twenty days.
The patient was treated again in the same manner as previously at a dosage rate of 100 mg per day for twenty days.
A patient suffered neuro-vegetative symptoms in the surgical menopause with mainly hot flushes which set in following a hysterectomy for a fibroid tumor.

[6] = female rat, subcutaneous injections, 3.5 and 10 mg/kg
[7] = female hamster, subcutaneous injections, 3.5 and 10 mg/kg
[8] = Example 18, 100 mg per day oral, after eight days, before: Severe
[9] = Example 19, 100 mg per day oral, eight days, before: Severe
[10] = Example 20, 100 mg per day oral for twenty days, before: Severe
[11] = Example 21, 100 mg per day oral for twenty days, before: Severe
[12] = Example 21, 100 mg per day oral for twenty days, before: Yes
[13] = Example 22, 100 mg per day oral for twenty days, before: Medium
[14] = Example 22, 100 mg per day oral for twenty days, before: Yes
[15] = Example 23, 100 mg per day oral for twenty days, before: Severe
[16] = Example 23, 100 mg per day oral for twenty days, before: Yes

C=CCN1CCCC1CNC(=O)c1cc(S(N)(=O)=O)cc(OC)c1OC (stereo not drawn) [N-(1'-allyl-2'-pyrrolidylmethyl)-2,3-dimethoxy-5-sulfamoylbenzamide]
LD50 ([1]; ip): 320 mg/kg
LD50 ([1]; iv): 124 to 129 mg/kg
LD50 ([1]; po): 1300 mg/kg
LD50 ([1]; sc): 465 to 518 mg/kg
LD50 (Wistar rat; Wistar rat, oral): toxicity of the compound was so low that the LD50 could not be determined
LD0 (Wistar rat; rat, in vivo, po): approximately 1.5 g/kg
LD100 (Wistar rat; rat, in vivo, po): > 4000 mg/kg
NOAEL at 672 h [2]: 1000 mg/kg/day
change to the uterus (female rat; female rat): little change to the uterus
vaginal cycle (female rat; female rat): blocked in dioestrus
vaginal epithelium (female rat; female rat): primsmatic, indicating the predominance of progesterone over estrogens
corpora lutea of the ovary (female rat; [6]): caused the corpora lutea of the ovary to be maintained
progesterone secretion by the maintained corpora lutea (female rat; [6]): secreted increased quantities of progesterone
susceptibility, rat versus hamster (female rat; mammary gland development): The rat appeared to be more susceptible than the hamster
development of the mammary glands (female rat; rat): development of the mammary glands was noted
secretory activity of the mammary glands (female rat; rat, at the highest doses): signs of secretory activity
corpora lutea of the ovary (female hamster; [7]): caused the corpora lutea of the ovary to be maintained
progesterone secretion by the maintained corpora lutea (female hamster; [7]): secreted increased quantities of progesterone
development of the mammary glands (female hamster; hamster): development of the mammary glands was noted
secretory activity of the mammary glands (female hamster; hamster, at the highest doses): signs of secretory activity
difference between compound and placebo [3]: very significant difference
Vulvar Irritation: Percentage Very Good & Good ([4]; 32 cases): 84%
Vulvar Irritation: Results, Average & Zero (number of cases) ([4]; 32 cases): 5
Vulvar Irritation: Results, Very Good & Good (number of cases) ([4]; 32 cases): 27
Hot Flushes: Percentage Very Good & Good ([4]; 211 cases): 73.9%
Hot Flushes: Results, Average & Zero (number of cases) ([4]; 211 cases): 55
Hot Flushes: Results, Very Good & Good (number of cases) ([4]; 211 cases): 156
effectiveness excellent or good in hot flushes ([4]; cases of hot flushes): 74 % of the cases
vulvar irritation eliminated ([4]; cases of vulvar irritation): 84 % of the cases
effective in psycho neuro-vegetative syndrome of the menopause (hot flashes, vulvar pruritus, vaginal diseases) ([4]; patients, menopause): 84 % of the cases treated
patient's mental state ([4]; patients, natural or surgical menopause): parallel improvement in the patient's mental state
cataleptic action (male rats): virtually no cataleptic action
animals made cataleptic (male rats; 200 mg/kg): 30%
clinical and biological tolerance (patients): excellent
side effects including mammary congestion, galactorrhea, drowsiness, etc. (cases) (patients): less than 8 % of the cases
acceptability of the treatment (patients; po): perfect acceptability
general tolerance (patients; po): excellent general tolerance
premature interruption of treatment, aversion or troublesome side effects (patients; po): In no case was the course of treatment interrupted prematurely
results of the treatment ([5]; 100 mg per day oral, first treatment, Examples 19, 20, 22): excellent
Headaches, After Treatment ([5]; Example 18, 100 mg per day oral, after eight days, before: Medium): None
Hot Flushes: Frequency, After Treatment [5, 8]: None
Hot Flushes: Intensity, After Treatment [5, 8]: None
Irritability, After Treatment [5, 8]: Slight
Anxiety, After Treatment ([5]; Example 18, 100 mg per day oral, after eight days, before: Slight): None
flashes and sweating attacks ([5]; Example 18, 100 mg per day oral, after two days (before: hot flushes 30-40 a day)): 8 per day
Anxiety, After Treatment ([5]; Example 19, 100 mg per day oral, eight days, before: Medium): Slight
Headaches, After Treatment [5, 9]: Slight
Hot Flushes: Frequency, After Treatment [5, 9]: None
Hot Flushes: Intensity, After Treatment [5, 9]: None
Irritability, After Treatment [5, 9]: Slight
Headaches, After Treatment ([5]; Example 20, 100 mg per day oral for twenty days, before: Medium): None
Hot Flushes: Frequency, After Treatment [5, 10]: None
Hot Flushes: Intensity, After Treatment [5, 10]: None
Irritability, After Treatment [5, 10]: Slight
Hot Flushes: Frequency, Twenty Days After Treatment [5, 11]: None
Hot Flushes: Intensity, Twenty Days After Treatment [5, 11]: None
Abdominal Meteorism, Twenty Days After Treatment [5, 12]: No
Anxiety, Twenty Days After Treatment [5, 12]: No
Hot Flushes: Frequency, Twenty Days After Treatment [5, 13]: None
Hot Flushes: Intensity, Twenty Days After Treatment [5, 13]: None
Anxiety, Twenty Days After Treatment [5, 14]: No
Irritability, Twenty Days After Treatment [5, 14]: No
reappearance of symptoms after end of second treatment ([5]; Example 23, 100 mg per day oral for twenty days): appeared again five days after termination of the second treatment
Hot Flushes: Frequency, Twenty Days After Treatment [5, 15]: Slight
Hot Flushes: Intensity, Twenty Days After Treatment [5, 15]: Slight
Anxiety, Twenty Days After Treatment [5, 16]: No
Depression, Twenty Days After Treatment [5, 16]: No
Irritability, Twenty Days After Treatment [5, 16]: Yes
Libido Change, Twenty Days After Treatment [5, 16]: Yes
